Where two headings read alike, the source gives them in different places.
Key:
[1] = tested on: P. falciparum 3D7 parasites; assay: P. falciparum growth inhibition assay, 1-cycle (72 h treatment), SYBR DNA staining (library screen at 2 μg/mL and dose-response); type: cell-based, Plasmodium falciparum; settings: for activity at 2 µg/mL: Plasmodium falciparum, 3D7, 72 h
[2] = tested on: P. falciparum 3D7 parasites; assay: P. falciparum growth inhibition assay, 2-cycle (120 h treatment), delayed-death screen and dose-response; type: cell-based, Plasmodium falciparum; settings: for activity at 2 µg/mL: Plasmodium falciparum, 3D7, 120 h
[3] = tested on: T. gondii RH strain (RH-Tub-eYFP) tachyzoites; assay: microbe, parasite or virus in culture; type: cell-based, Toxoplasma gondii; settings: 72 h; for percent parasite growth at 2 µg/mL: Toxoplasma gondii
[4] = library screen at 2 μg/mL, 72 h, % growth, replicate 1
[5] = library screen at 2 μg/mL, 72 h, % growth, replicate 2
[6] = library screen at 2 μg/mL, 120 h, % growth, replicate 1
[7] = library screen at 2 μg/mL, 120 h, % growth, replicate 2
[8] = library screen at 2 μg/mL, % growth, replicate 1
[9] = library screen at 2 μg/mL, % growth, replicate 2
[10] = P. falciparum 3D7, 72 h, library screen at 2 μg/mL, % growth, replicate 1
[11] = P. falciparum 3D7, 72 h, library screen at 2 μg/mL, % growth, replicate 2
[12] = P. falciparum 3D7, 120 h, library screen at 2 μg/mL, % growth, replicate 1
[13] = P. falciparum 3D7, 120 h, library screen at 2 μg/mL, % growth, replicate 2
[14] = T. gondii RH, library screen at 2 μg/mL, % growth, replicate 1
[15] = T. gondii RH, library screen at 2 μg/mL, % growth, replicate 2
[16] = P. falciparum, 72 h, screen at 2 μg/mL, replicate 1
[17] = P. falciparum, 72 h, screen at 2 μg/mL, replicate 2
[18] = P. falciparum, 120 h, screen at 2 μg/mL, replicate 1
[19] = P. falciparum, 120 h, screen at 2 μg/mL, replicate 2
[20] = T. gondii, screen at 2 μg/mL, replicate 1
[21] = T. gondii, screen at 2 μg/mL, replicate 2

Question: Which Pf_72h_%Growth_Rep1 [1, 4] does the source give for CC(=O)[C@H]1c2c(c(O)c3c(O)cccc3c2-c2c3c(c(O)c4c(O)cccc24)C(=O)C[C@](C)(O)[C@H]3C(C)=O)C(=O)C[C@]1(C)O [A 39183A] here?
Answer: The Pf_72h_%Growth_Rep1 was 2.40%.

Question: And the Pf_72h_%Growth_Rep2 [1, 5]?
Answer: Its Pf_72h_%Growth_Rep2 is 2.28%.

Question: What about the Pf_120h_%Growth_Rep1 [2, 6] of the same molecule?
Answer: Its Pf_120h_%Growth_Rep1 is 5.28%.

Question: What about the Pf_120h_%Growth_Rep2 [2, 7] of the same molecule?
Answer: Its Pf_120h_%Growth_Rep2 is -2.60%.

Question: And the Tg_72h_%Growth_Rep1 [3, 8]?
Answer: Its Tg_72h_%Growth_Rep1 is 90.59%.

Question: And the Tg_72h_%Growth_Rep2 [3, 9]?
Answer: The Tg_72h_%Growth_Rep2 was 100.22%.

Question: With CC(=O)N[C@H]1[C@H](O[C@@H]2c3ccc(c(Cl)c3)Oc3cc4cc(c3O[C@@H]3O[C@H](CO)[C@@H](O)[C@H](O)[C@H]3NC(=O)CCCCCCC(C)C)Oc3ccc(cc3Cl)C[C@H]3NC(=O)[C@H](N)c5ccc(O)c(c5)Oc5cc(O)cc(c5)[C@H](NC3=O)C(=O)N[C@H]4C(=O)N[C@H]3C(=O)N[C@@H]2C(=O)N[C@H](C(=O)O)c2cc(O)cc(O[C@H]4O[C@H](CO)[C@@H](O)[C@H](O)[C@@H]4O)c2-c2cc3ccc2O)O[C@H](CO)[C@@H](O)[C@@H]1O [Teicoplanin A2-2] as the molecule, how does the Pf_72h_%Growth_Rep1 ([1]; P. falciparum, 72 h, parasite screen 2 μg/mL, % growth, replicate 1) read?
Answer: Its Pf_72h_%Growth_Rep1 is 72.71%.

Question: What about the Pf_72h_%Growth_Rep2 ([1]; P. falciparum, 72 h, parasite screen 2 μg/mL, % growth, replicate 2) of the same molecule?
Answer: Its Pf_72h_%Growth_Rep2 is 85.08%.

Question: What about the Pf_120h_%Growth_Rep1 ([2]; P. falciparum, 120 h, parasite screen 2 μg/mL, % growth, replicate 1) of the same molecule?
Answer: The Pf_120h_%Growth_Rep1 was 148.39%.

Question: And the Pf_120h_%Growth_Rep2 ([2]; P. falciparum, 120 h, parasite screen 2 μg/mL, % growth, replicate 2)?
Answer: The Pf_120h_%Growth_Rep2 was 93.23%.

Question: And the Tg_72h_%Growth_Rep1 ([3]; T. gondii, parasite screen 2 μg/mL, % growth, replicate 1)?
Answer: Its Tg_72h_%Growth_Rep1 is 90.69%.

Question: And the Tg_72h_%Growth_Rep2 ([3]; T. gondii, parasite screen 2 μg/mL, % growth, replicate 2)?
Answer: Its Tg_72h_%Growth_Rep2 is 106.25%.

Question: Which Pf_72h_%Growth_Rep1 [1, 10] does the source give for O=C1C=CC(=O)c2c(O)cccc21 [BIA-J1739] here?
Answer: The Pf_72h_%Growth_Rep1 was 80.59%.

Question: And the Pf_72h_%Growth_Rep2 [1, 11]?
Answer: Its Pf_72h_%Growth_Rep2 is 97.69%.

Question: What about the Pf_120h_%Growth_Rep1 [2, 12] of the same molecule?
Answer: Its Pf_120h_%Growth_Rep1 is 84.54%.

Question: What about the Pf_120h_%Growth_Rep2 [2, 13] of the same molecule?
Answer: The Pf_120h_%Growth_Rep2 was 95.25%.

Question: And the Tg_72h_%Growth_Rep1 [3, 14]?
Answer: The Tg_72h_%Growth_Rep1 was 123.29%.

Question: And the Tg_72h_%Growth_Rep2 [3, 15]?
Answer: Its Tg_72h_%Growth_Rep2 is 97.98%.

Question: For C=C1[C@@H](C)[C@H]2[C@H](Cc3ccccc3)NC(=O)[C@]23[C@H](OC(C)=O)/C=C/[C@](C)(O)C[C@@H](C)C/C=C/[C@H]3[C@@H]1O [Cytochalasin H], which Pf_72h_%Growth_Rep1 [1, 16] is on record?
Answer: The Pf_72h_%Growth_Rep1 was 6.96%.

Question: What about the Pf_72h_%Growth_Rep2 [1, 17] of the same molecule?
Answer: The Pf_72h_%Growth_Rep2 was 6.37%.

Question: And the Pf_120h_%Growth_Rep1 [2, 18]?
Answer: The Pf_120h_%Growth_Rep1 was 1.94%.

Question: And the Pf_120h_%Growth_Rep2 [2, 19]?
Answer: Its Pf_120h_%Growth_Rep2 is -0.33%.

Question: And the Tg_72h_%Growth_Rep1 [3, 20]?
Answer: The Tg_72h_%Growth_Rep1 was 1.51%.

Question: And the Tg_72h_%Growth_Rep2 [3, 21]?
Answer: The Tg_72h_%Growth_Rep2 was 2.70%.

Question: Which results are given for C[C@H]1C/C=C/[C@H]2[C@@H]3O[C@]3(C)[C@@H](C)[C@H]3[C@H](Cc4ccccc4)NC(=O)[C@]32OC(=O)O/C=C/[C@@](C)(O)C1=O [Cytochalasin E]?
Answer: activity at 2 µg/mL ([1]; P. falciparum, 72 h, screen at 2 μg/mL, replicate 1, read-out: Pf_72h_%Growth_Rep1): 64%; activity at 2 µg/mL ([1]; P. falciparum, 72 h, screen at 2 μg/mL, replicate 2, read-out: Pf_72h_%Growth_Rep2): 54.5%; activity at 2 µg/mL ([2]; P. falciparum, 120 h, screen at 2 μg/mL, replicate 1, read-out: Pf_120h_%Growth_Rep1): 53.6%; activity at 2 µg/mL ([2]; P. falciparum, 120 h, screen at 2 μg/mL, replicate 2, read-out: Pf_120h_%Growth_Rep2): 53.8%; percent parasite growth at 2 µg/mL ([3]; T. gondii, screen at 2 μg/mL, replicate 1, read-out: Tg_72h_%Growth_Rep1): 89.3%; percent parasite growth at 2 µg/mL ([3]; T. gondii, screen at 2 μg/mL, replicate 2, read-out: Tg_72h_%Growth_Rep2): 102%

Question: CC[C@H](C)[C@H]1O[C@]2(C=C[C@@H]1C)C[C@@H]1C[C@@H](C/C=C(\C)[C@@H](O[C@H]3C[C@H](OC)[C@@H](O)[C@H](C)O3)[C@@H](C)/C=C/C=C3\CO[C@@H]4[C@H](O)C(C)=C[C@@H](C(=O)O1)[C@]34O)O2 [Avermectin B1a monosaccharide] was tested. Which Pf_72h_%Growth_Rep1 [1, 4] did it give?
Answer: Its Pf_72h_%Growth_Rep1 is 47.44%.

Question: What about the Pf_72h_%Growth_Rep2 [1, 5] of the same molecule?
Answer: Its Pf_72h_%Growth_Rep2 is 32.72%.

Question: What about the Pf_120h_%Growth_Rep1 [2, 6] of the same molecule?
Answer: The Pf_120h_%Growth_Rep1 was 24.77%.

Question: What about the Pf_120h_%Growth_Rep2 [2, 7] of the same molecule?
Answer: Its Pf_120h_%Growth_Rep2 is 20.49%.

Question: And the Tg_72h_%Growth_Rep1 [3, 8]?
Answer: Its Tg_72h_%Growth_Rep1 is 153.46%.

Question: And the Tg_72h_%Growth_Rep2 [3, 9]?
Answer: The Tg_72h_%Growth_Rep2 was 93.98%.

Question: Which results are given for COc1ccc(Br)c(C)c1C(=O)O[C@@H]1C[C@H](O[C@@H]2C(C)O[C@@H](O[C@H]3CCC[C@@H]4[C@@H]3C=C[C@H]3CCCC/C=C/[C@@H]5C=C(C(=O)O)[C@H](C)C[C@]56OC(=O)C(=C6O)OC(=O)[C@@]43C)C[C@H]2O)O[C@H](C)[C@H]1O (stereo partly drawn) [Bromothricin]?
Answer: Pf_72h_%Growth_Rep1 [1, 16]: 90.13%; Pf_72h_%Growth_Rep2 [1, 17]: 84.25%; Pf_120h_%Growth_Rep1 [2, 18]: 159.83%; Pf_120h_%Growth_Rep2 [2, 19]: 97.51%; Tg_72h_%Growth_Rep1 [3, 20]: 83.92%; Tg_72h_%Growth_Rep2 [3, 21]: 93.14%

Question: Which Pf_72h_%Growth_Rep1 [1, 10] does the source give for CCOC(=O)c1c2ccocc-2oc1=O [BIA-K1981] here?
Answer: Its Pf_72h_%Growth_Rep1 is 72.42%.

Question: What about the Pf_72h_%Growth_Rep2 [1, 11] of the same molecule?
Answer: The Pf_72h_%Growth_Rep2 was 90.55%.

Question: What about the Pf_120h_%Growth_Rep1 [2, 12] of the same molecule?
Answer: Its Pf_120h_%Growth_Rep1 is 169.06%.

Question: And the Pf_120h_%Growth_Rep2 [2, 13]?
Answer: The Pf_120h_%Growth_Rep2 was 89.57%.

Question: What about the Tg_72h_%Growth_Rep1 [3, 14] of the same molecule?
Answer: The Tg_72h_%Growth_Rep1 was 89.77%.

Question: What about the Tg_72h_%Growth_Rep2 [3, 15] of the same molecule?
Answer: The Tg_72h_%Growth_Rep2 was 96.78%.

Question: CO[C@H]1\C=C/C=C\C=C/C[C@H](OC(=O)[C@@H](C)NC(=O)C2CCCCC2)[C@H](C)[C@@H](O)/C(C)=C\CCc2cc(O)cc(c2O)NC(=O)C1 [Ansatrienin B] was tested. Which Pf_72h_%Growth_Rep1 [1, 4] did it give?
Answer: The Pf_72h_%Growth_Rep1 was 4.68%.

Question: What about the Pf_72h_%Growth_Rep2 [1, 5] of the same molecule?
Answer: The Pf_72h_%Growth_Rep2 was 7.24%.

Question: And the Pf_120h_%Growth_Rep1 [2, 6]?
Answer: Its Pf_120h_%Growth_Rep1 is -0.38%.

Question: And the Pf_120h_%Growth_Rep2 [2, 7]?
Answer: Its Pf_120h_%Growth_Rep2 is 4.42%.

Question: And the Tg_72h_%Growth_Rep1 [3, 8]?
Answer: Its Tg_72h_%Growth_Rep1 is 19.16%.

Question: What about the Tg_72h_%Growth_Rep2 [3, 9] of the same molecule?
Answer: Its Tg_72h_%Growth_Rep2 is 11.14%.
